According to article PMC8321398, “The discovery of a novel series of compounds with single-dose efficacy against juvenile and adult Schistosoma species” (PLoS Neglected Tropical Diseases, 2021):
In brackets after ≈: the same amount, converted by molar mass. Read-outs that look alike come from different tables or passages of the source.

Assays:
[1] = system: S. haematobium; set-up: method as in PMID 28126024; conditions: 40 mg/kg; cited from earlier work
[2] = system: S. mansoni; set-up: method as in PMID 28126024; conditions: 40 mg/kg; cited from earlier work
[3] = system: S. japonicum; set-up: method as in PMID 28126024; conditions: 40 mg/kg; cited from earlier work
[4] = system: S. mansoni juvenile worms; conditions: cited from earlier work
[5] = system: Juvenile S. mansoni; assay: In vitro juvenile (3 week old) S. mansoni worm assay; format: cell-based; conditions: Schistosoma mansoni; Table 2; in vitro, 120 h incubation
Text: (§1) The Puerto Rican strain of S. mansoni was maintained in Biomphalaria glabrata and CD1 mice. Oncomelania hupensis (hupensis) infected with S. japonicum (Chinese strain) and Bulinus truncatus (truncatus) infected with Egyptian strain S. haematobium were obtained from BEI Resources, NIAID, NIH. Infection of mice for worm recovery was as previously described except that, whereas cercariae of S. mansoni and S. haematobium were obtained by shedding from infected snails under lights, cercariae of S. japonicum were obtained by gently crushing the snails. Furthermore, adult S. haematobium were recovered after 12 weeks following mouse infection.
(§2) In vitro efficacy was carried out as previously described. In brief, worms were recovered from infected mice by portal perfusion 3 weeks (for juveniles) or 6 weeks (for adults) post-infection using warm perfusion medium (Dulbecco’s Modified Eagle’s Medium [DMEM], 2mM L-glutamine, 100 Units/ml penicillin, 100μg/ml streptomycin, 20mM Hepes, 10 Units/ml heparin [Sigma, UK]). Worms were washed free of red blood cells using the perfusion medium, and finally suspended in complete medium (cDMEM: DMEM, 2mM L-glutamine, 100 Units/ml penicillin, 100μg/ml streptomycin, 10% FCS). The juvenile assays were carried out in 96-well plates, each well containing 6–8 worms in 200 μL cDMEM. The adult worm assay was in 24-well plates, each well containing 3 worm pairs in 1mL cDMEM. Both the juvenile and adult worm cultures were kept at 37° C, in an atmosphere of 5% CO2. Drug effects were determined on day 5 following drug treatment by assessing the viability of individual worms as described in [14].

[6] = Mouse pharmacokinetics; format: in vivo; conditions: for Clobs / AUC(0-inf) / Vd / half-life: 0.5 mg/kg iv, in a mixture of 5 compounds; for AUC(0-inf) / Vd / bioavailability / half-life: male, Swiss albino, plasma; for Vd: read-out: Vss; for bioavailability: 2.5 mg/kg oral, mixture of 5 compounds, calculated values > 100% shown as 100; for half-life: iv, 0.5 mg/kg, sampled over 24 h;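 on all read-outs here: three mice per experiment, dosed in 10% DMSO with 50 mM Na2HPO4 buffer plus Tween-80, plasma levels quantified by LC-MS against a calibration line prepared in blank matrix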
[7] = system: Adult S. mansoni; assay: In vitro adult S. mansoni worm assay; format: cell-based; conditions: Schistosoma mansoni, 120 h incubation
Text: as §1, §2

[8] = Plasma protein binding in human plasma at 10 uM, equilibrium dialysis; format: in vitro ADME
Protocol: (§3) Each experiment was performed in duplicate for the compound being tested. A working solution of compound was prepared from 10 μL of 10 mM solution in DMSO + 190 μL 40:60 MeCN:Water. A Total solution was prepared from 12 μL of working solution + 588 μL plasma (compound conc: 10 μM, DMSO: 0.1%, ACN:0.76%). In an equilibrium dialysis chamber, Total solution (200 μL) was added to the plasma chamber and PBS pH 7.4 (350 μL) was added to the buffer chamber. The chamber was then incubated at 37°C for 6 h with constant shaking at 400 rpm (Thermomixer comfort, Eppendorf). Aliquots were removed from both plasma and buffer chambers and the following test samples prepared: Blank: blank Plasma (20 μL) + blank buffer (60 μL), Buffer: blank plasma (20 μL) + test buffer (60 μL), Plasma: test plasma (20 μL) + blank buffer (60 μL), Total: total sample (20 μL) + blank buffer (60 μL). Ice-cold acetonitrile (160 μL), containing a suitable standard was added to all samples, they were shaken vigorously and centrifuged at 4,000 rpm for 20 min at 15°C. Supernatant (110 μL) from each sample was diluted with water (110 μL) and the sample analysed by LC-MS/MS.
(§4) % Free = 100 × (AREA in buffer × dilution factor)/(AREA in Plasma × dilution factor)
(§5) % Recovery = 100 ×[(Avg AREA in buffer × dilution factor) + (Avg AREA in Plasma × dilution factor)] / (Avg AREA in Total × dilution factor)

[9] = system: HepG2 cells; assay: Cytotoxicity, HepG2 cells with MTT; format: cell-based, human; conditions: Table 2; hepG2 cell line, 72 h incubation
Protocol: Activity against mammalian cells was determined using either of two standard assays. The first of these used MRC-5 cells with Alamar blue staining as previously described. The second used HepG2 cells monitored using 3-(4,5-dimethylthiazol-2-yl)-2,5-diphenyltetrazolium bromide (MTT) as previously described.

[10] = Plasma protein binding in mouse plasma at 10 uM, equilibrium dialysis; format: in vitro ADME
Protocol: as §3, §4, §5

[11] = Metabolic stability in mouse hepatocytes; format: in vitro ADME; conditions: hepatocytes (suspension), pH 7.4, 90 min incubation, read-out: Mouse hepatocyte % remaining at 90 min
Protocol: (§6) 100 μM compound stock solution was prepared from 5 μL of 4 mM stock in DMSO + 195 μL MeCN. Working solution (2 μM compound) was prepared using 10 μL of 100 μM stock + 490 μL buffer pH 7.4 (KHB supplemented with CaCl2, NaHCO3, HEPES, fructose, glycine; pH 7.4).
(§7) Working solution (25 μL, 2 μM) was added in duplicate to wells in a 0.5 mL per well, 96 well plate which was preincubated to reach 37°C. Hepatocyte suspension (25 μL) was added to each plate, and the plate incubated (37°C, 95% relative humidity with 5% CO2 supply) under gentle mixing (Thermomixer @300 rpm). After designated time periods, ice-cold MeCN (250 μL) was added with a suitable standard. For T = 0 min, ice-cold MeCN (250 μL) with suitable standard was added to the working solution (2 μM) and hepatocyte suspension (25 μL) added. The plates for each time point were shaken, sonicated for 5 mins and kept at 4°C until the final plate was processed. The plates were centrifuged at 4,000 rpm for 20 min, supernatant (110 μL) was mixed with water (110 μL) and the samples analysed using LC-MS/MS.

[12] = Metabolic stability in human hepatocytes; format: in vitro ADME; conditions: hepatocytes (suspension), pH 7.4, 90 min incubation, read-out: Human hepatocyte % remaining at 90 min
Protocol: as §6, §7

[13] = Kinetic solubility; format: physicochemical
Text: Table 4 in vitro, physicochemical and in vivo properties of compounds pictured in Fig 10. | column: Measured physicochemical properties / Kinetic solubility, pH 7.4 (uM); Measured physicochemical properties / Kinetic solubility, FaSSIF (uM); Measured physicochemical properties / Kinetic solubility, FeSSIF (uM)

[14] = system: S. mansoni infections; set-up: method as in PMID 29126136; conditions: cited from earlier work
[15] = system: S. japonicum adult; assay: In vitro adult S. japonicum worm assay; format: cell-based
Text: as §1, §2

[16] = system: S. mansoni juvenile worms; assay: In vivo efficacy, mouse model of juvenile (21-day old) S. mansoni infection; conditions: mouse, Juvenile infection, oral 50 mg/kg, formulation corn oil
Protocol: (§8) Prior to in vivo efficacy experiments, a single animal was given a dose of drug (using the same formulation) that was twice as large as that planned for use in the efficacy experiments and was observed periodically for adverse clinical signs for 24h by trained veterinarians. Adverse clinical signs checked include postural defect, vocalization, oculo-nasal discharge, hypersalivation, change in activity, abnormal gait, respiration and pulse, piloerection, loss of pupillary reflex, eyelid reflex, chromodacryorrhea, reaction to handling, tremor, convulsions, prostration, diarrhoea, cachexia, emaciation. […] In vivo efficacy was assessed in female CD1 mice using methods based on those previously described. Mice were infected subcutaneously with 150 cercariae. Test compounds were suspended in 7% Tween-80 / 3% Ethanol / double distilled water and drug dispersal was facilitated by vortexing and using a sonicating water bath (Formulation “Aqueous”). Alternatively, drugs were first dissolved in DMSO, then diluted with corn oil to give a 1:19 DMSO:corn oil solution/suspension of test compound (Formulation “Corn oil”). Dosing was by oral gavage. Mice in the negative control groups were given the drug suspension vehicle only. Positive controls for treatment of adult, day 42 old, infections were treated with PZQ and those for juvenile, day 21 old, infections with artemether, which unlike PZQ is effective against the juvenile worm infections in mice. During and following treatment, mice were closely observed for any ill effects by staff experienced in animal handling. This involved individuals who were blinded to the treatment groups. Effects they were trained to look for included hunching, immobility, piloerection, subdued behaviour, diarrhoea and loss of body condition. None were seen. Worms were recovered by portal perfusion with citrate saline 8–14 days post treatment and counted. Differences between groups relative to the non-drug treated controls were assessed for statistical significance by Student’s unpaired t-test using GraphPad Prism Software. P values are presented as follows:- ns–P > 0.05 (not significant), * P ≤ 0.05, ** P ≤ 0.01, *** P ≤ 0.001, **** P ≤ 0.0001.
(§9) For pharmacokinetic analysis during the in vivo efficacy experiments individual animals were only sampled once. Samples were taken from one animal in each experimental group at each of 1, 4, 8 h and samples from two animals in each group were taken at 24 h.

[17] = as above; conditions: female, CD1, plasma; mouse, Juvenile infection, oral 50 mg/kg, formulation corn oil; read-out: Plasma conc @24 h (efficacy experiment)
Protocol: as §8, §9

[18] = Table 2, in vitro, read-out: Adult S. mansoni EC50

Row | EC50 [5] [nM] | Clobs [6] [mL/min/kg] | AUC(0-inf) [6] [ng·h/mL] | Vd [6] [L/kg] | bioavailability [6] [%] | half-life [6] [h] | EC50 [7, 18] [nM] | remaining at 1.5 h, 1 µM [11] [%] | remaining at 1.5 h, 1 µM [12] [%] | SMILES | Cytotox TC50 [9] | further results
1 |  |  |  |  |  |  |  |  |  | O=C(C1CCCCC1)N1CC(=O)N2CCc3ccccc3C2C1 (stereo not drawn) [PZQ, Praziquantel] |  | cure rate in children [1]: 73.6%; cure rate in children [2]: 76.4%; cure rate in children [3]: 95.3%; activity against the juvenile stages ([4]; both in vivo and in vitro): relatively ineffective
2 | 60 | 6.33 | 1330 | 2.4 | 76 | 6.3 | 40 |  |  | CC(C)c1nn2cnc(-c3ccc(F)c(C(F)(F)F)c3)cc2c1-c1ccc2[nH]ncc2c1F [LSHTM-3644] |  | 
3 |  |  |  |  |  |  |  |  |  | CO[C@H]1O[C@@H]2O[C@@]3(C)CC[C@H]4[C@H](C)CC[C@@H]([C@H]1C)[C@@]24OO3 [artemether] |  | efficacy against the juvenile worm infections in mice ([4]; mice): effective
4 | 11.1 | 24.5 | 300 | 5 | 100 | 4.6 | 9 | 31 | 79 | CC(C)Oc1cc(-c2cn3c(-c4ccc5[nH]ncc5c4F)c(C(F)(F)F)nc3cn2)ccc1F [LSHTM-3690] | 9,250 nM | Human plasma protein %binding [8]: 99.925%; recovery at 6 h, 10 µM ([8]; human, human plasma, pH 7.4): 89%; Mouse plasma protein %binding [10]: 99.8775%; recovery at 6 h, 10 µM ([10]; mouse, mouse plasma, pH 7.4): 93.9%; solubility kinetic at 24 h ([13]; FaSSIF, pH 6.5, read-out: Kinetic solubility, FaSSIF): 188 µM (≈ 89 µg/mL); solubility kinetic at 24 h ([13]; FeSSIF, pH 5, read-out: Kinetic solubility, FeSSIF): 196 µM (≈ 92.8 µg/mL)
5 |  |  |  |  |  |  |  |  |  | CC(C)NCC1CCc2cc(CO)c([N+](=O)[O-])cc2N1 (stereo not drawn) [oxamniquine] |  | efficacy against S. mansoni infections [14]: effective
6 | 2.7 | 31.3 | 300 | 5.6 | 57.1 | 4.5 | 2.3 | 78 | 45 | CC(C)c1cc(-c2cn3c(-c4ccc5[nH]ncc5c4F)c(C(F)(F)F)nc3cn2)ccc1F [LSHTM-3661] | 17,000 nM | EC50 ([7]; Table 3, S. mansoni, read-out: Sm adult EC50): 2.3 nM; EC50 ([15]; Schistosoma japonicum, S. japonicum, 120 h incubation, read-out: Sj adult EC50): 24.8 nM; Potency ratio Sj/Sm ([15]; adult EC50 S. japonicum / S. mansoni): 10.9; solubility kinetic at 24 h ([13]; pH 7.4, read-out: Kinetic solubility, pH 7.4): 0.04 µM (≈ 0.0183 µg/mL); Worms remaining [16]: 0%; concentration at 24 h [17]: 178 ng/mL
